In ChEMBL document CHEMBL1201861, “Genomics of Drug Sensitity in Cancer screening data, Wellcome Trust Sanger Institute”:
Where a SMILES comes first, the peptide text is derived from it. The star is where a group is joined. Cbz = O=C(OCc1ccccc1)*

Tests used:
EW-7 = assay: SANGER: Inhibition of human EW-7 cell growth in a cell viability assay.; assay type: functional, cell-based
IGROV-1 = assay: cells; assay type: functional, cell-based; conditions: Homo sapiens;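 note: reduction of IGROV-1 cell growth, read out with a viability assay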
Description: SANGER: Inhibition of human IGROV-1 cell growth in a cell viability assay.

MFE-296 = assay: SANGER: Inhibition of human MFE-296 cell growth in a cell viability assay.; assay type: functional, cell-based
NCI-H1792 = assay: cells; assay type: functional, cell-based; conditions: Homo sapiens;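 note: growth inhibition of human NCI-H1792 cells, read out as cell viability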
Description: SANGER: Inhibition of human NCI-H1792 cell growth in a cell viability assay.

NCI-H810 = assay: cells; assay type: functional, cell-based; conditions: Homo sapiens;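 note: IC50 reflects inhibition of cancer cell line growth, read out with a cell viability assay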
Description: SANGER: Inhibition of human NCI-H810 cell growth in a cell viability assay.

PC-3 = assay: cells; assay type: functional, cell-based; conditions: Homo sapiens;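 note: cell viability assay measuring growth inhibition of PC-3 cells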
Description: SANGER: Inhibition of human PC-3 cell growth in a cell viability assay.

RT-4 = assay: SANGER: Inhibition of human RT4 cell growth in a cell viability assay.; assay type: functional, cell-based
SCC-4 = assay: cells; assay type: functional, cell-based; conditions: Homo sapiens;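 note: growth inhibition of human SCC-4 cells, read out as cell viability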
Description: SANGER: Inhibition of human SCC-4 cell growth in a cell viability assay.

ACHN = assay: cells; assay type: functional, cell-based; conditions: Homo sapiens;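 note: cell viability read-out used to gauge how strongly growth of human ACHN cells is suppressed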
Description: SANGER: Inhibition of human ACHN cell growth in a cell viability assay.

CAL-85-1 = assay: cells; assay type: functional, cell-based; conditions: Homo sapiens;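 note: growth inhibition of human CAL-85-1 cells, read out with a cell viability assay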
Description: SANGER: Inhibition of human CAL-85-1 cell growth in a cell viability assay.

EW-12 = assay: SANGER: Inhibition of human EW-12 cell growth in a cell viability assay.; assay type: functional, cell-based
IMR-5 = assay: cells; assay type: functional, cell-based, Homo sapiens;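 note: growth inhibition of human IMR-5 cells, read out with a cell viability assay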
Description: SANGER: Inhibition of human IMR-5 cell growth in a cell viability assay.

KP-N-RT-BM-1 = assay: SANGER: Inhibition of human KP-N-RT-BM-1 cell growth in a cell viability assay.; assay type: functional, cell-based
NB14 = assay: cells; assay type: functional, cell-based, Homo sapiens;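 note: growth inhibition of NB14 cells measured with a cell viability assay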
Description: SANGER: Inhibition of human NB14 cell growth in a cell viability assay.

NCI-H1694 = assay: cells; assay type: functional, cell-based, Homo sapiens;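 note: cell viability assay measuring inhibition of growth in human NCI-H1694 cells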
Description: SANGER: Inhibition of human NCI-H1694 cell growth in a cell viability assay.

NCI-H716 = assay: cells; assay type: functional, cell-based, Homo sapiens;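 note: growth inhibition of human NCI-H716 cells, measured by a cell viability assay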
Description: SANGER: Inhibition of human NCI-H716 cell growth in a cell viability assay.

NCI-H889 = assay: cells; assay type: functional, cell-based, Homo sapiens;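 note: cell growth inhibition of the cell line, read out with a viability assay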
Description: SANGER: Inhibition of human NCI-H889 cell growth in a cell viability assay.

SKM-1 = assay: SANGER: Inhibition of human SKM-1 cell growth in a cell viability assay.; assay type: functional, cell-based
NCI-H2227 = assay: cells; assay type: functional, cell-based; conditions: Homo sapiens;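 note: growth inhibition of the human cell line, read out with a cell viability assay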
Description: SANGER: Inhibition of human NCI-H2227 cell growth in a cell viability assay.

[1] = Homo sapiens, IMR-5, read-out: IC50

Work on `CO[C@@H]1[C@H](N(C)C(=O)c2ccccc2)C[C@H]2O[C@]1(C)n1c3ccccc3c3c4c(c5c6ccccc6n2c5c31)C(=O)NC4` [MIDOSTAURIN] yielded an IC50 (EW-7) greater than 0.512 µM, an IC50 (IGROV-1) greater than 0.512 µM and an IC50 (MFE-296) greater than 0.512 µM. It also gave an IC50 (NCI-H1792) of 0.331 µM, an IC50 (NCI-H810) of 0.21 µM and an IC50 (PC-3) greater than 0.512 µM. For the same compound, the IC50 (RT-4) was greater than 0.512 µM, the IC50 (SCC-4) was 0.24 µM and the IC50 (ACHN) was 0.331 µM. The IC50 (CAL-85-1) was greater than 0.512 µM.
`Cc1ccc(NC(=O)c2ccc(CN3CCN(C)CC3)cc2)cc1Nc1nccc(-c2cccnc2)n1` [IMATINIB] gave an IC50 (EW-12; Homo sapiens, EW-12) greater than 2 µM, an IC50 (IMR-5; Homo sapiens, IMR-5) greater than 2 µM and an IC50 (KP-N-RT-BM-1) greater than 2 µM. For the same compound, the IC50 (NB14; Homo sapiens, NB14) was greater than 2 µM, the IC50 (NCI-H1694; Homo sapiens, NCI-H1694) was greater than 2 µM and the IC50 (NCI-H716; Homo sapiens, NCI-H716) was greater than 2 µM. The IC50 (NCI-H889; Homo sapiens, NCI-H889) was greater than 2 µM and the IC50 (SKM-1; Homo sapiens, SKM-1) was greater than 2 µM.
In the case of `COc1ccc(N(C(=O)Oc2c(C)cccc2C)c2ccnc(Nc3ccc(N4CCN(C)CC4)cc3)n2)c(OC)c1`, the IC50 (EW-12; Homo sapiens, EW-12) is reported as greater than 5.12 µM, the IC50 (IMR-5; [1]) is reported as greater than 5.12 µM and the IC50 (KP-N-RT-BM-1) is reported as greater than 5.12 µM. For the same compound, the IC50 (NB14; Homo sapiens, NB14) was greater than 5.12 µM, the IC50 (NCI-H1694; Homo sapiens, NCI-H1694) was greater than 5.12 µM and the IC50 (NCI-H716; Homo sapiens, NCI-H716) was greater than 5.12 µM. For the same compound, the IC50 (NCI-H889; Homo sapiens, NCI-H889) was greater than 5.12 µM and the IC50 (SKM-1; Homo sapiens, SKM-1) was greater than 5.12 µM.
For `CC(C)C[C@@H](C=O)NC(=O)[C@H](CC(C)C)NC(=O)[C@H](CC(C)C)NC(=O)OCc1ccccc1` [MG-132] (Cbz-Leu-Leu-Leu-aldehyde), the IC50 (EW-12; ew-12) was greater than 1 µM, the IC50 (IMR-5; [1]) was greater than 1 µM and the IC50 (IMR-5; imr-5, read-out: IC50) was greater than 1 µM. It also gave an IC50 (KP-N-RT-BM-1) greater than 1 µM, an IC50 (NB14; nb14) greater than 1 µM and an IC50 (NCI-H1694; Homo sapiens, NCI-H1694) greater than 1 µM. It also gave an IC50 (NCI-H1694; nci-h1694) greater than 1 µM, an IC50 (NCI-H2227) greater than 1 µM and an IC50 (NCI-H716; nci-h716) greater than 1 µM. It also gave an IC50 (NCI-H889; nci-h889) greater than 1 µM and an IC50 (SKM-1; skm-1) greater than 1 µM.
